Assay results from US8653122B2, “Oromucosal formulation and process for preparing the same” (Santhera Pharmaceuticals (Switzerland) Ltd., priority 2002, dated 2014).

Tests used:
dogs [1] = assay: Dog toxicology study using buccal delivery for up to 4 weeks; type: in vivo; settings: for maximum systemic concentration of fipamezole: buccal, first day
Experimental: (§1) Cardiac safety was studied in dogs in a 30-day dog toxicology study using oral dosing and dog toxicology studies using buccal dosing.
Maximum systemic concentrations of fipamezole after dosing on the first day of this study were about 800, 2000 and 3300 ng/ml.

dogs [2] = assay: Dog toxicology study, buccal spray, sequential dosing regimen (blood pressure, heart rate, ECG); type: in vivo
Experimental: as §1
In another toxicology study four male dogs were given fipamezole in buccal spray doses of 1, 5 and 10 mg/kg in a sequential dosing regimen with 5 to 15 days between doses. Blood pressure (systolic, diastolic and mean), heart rate and ECGs were monitored before and up to 12 hours after dosing.

dogs [3] = assay: 30-day dog toxicology study using oral dosing (cardiac safety); type: in vivo; settings: for maximum systemic fipamezole concentration: oral
Experimental: as §1
In the 30-day dog toxicology study fipamezole was administered orally at doses of 1, 5, 10 and 15 mg/kg/day for 30 days, resulting in maximum systemic fipamezole concentrations of about 200, 1000, 2000 and 3300 ng/ml, respectively.

[4] = Plasma levels of fipamezole in healthy male volunteers after a single 30 mg dose (oral, oromucosal tablet, oromucosal spray); type: in vivo, human; settings: for AUC(0-inf) / Cmax / Tmax: human, plasma; for AUC(0-inf) / Cmax / t1/2el: mean
Experimental: Plasma levels of fipamezole were studied in healthy male volunteers after oral administration of the drug as a solution. Blood samples for pharmcokinetic evaluation were collected for 24 hours after the drug administration. The concentration of fipamezole in plasma was measured with HPLC-MS/MS, and the pharmacokinetic parameters were calculated. The pharmacokinetics of fipamezole was evaluated with TopFit 2.0 pharmacokinetic program. The Cmax and tmax values were read from the concentration vs. time curves, and the apparent elimination phase half-lives from the terminal part of the semilogarithmic concentration vs. time curve (see FIG. 1). AUC values were calculated both to infinity and up to the last collection time with quantifiable fipamezole concentration. Mean plasma concentration time plot following single dose administration of 30 mg fipamezole via an oral, oromucosal spray and an oromucosal tablet on a semilogarithmic scale is shown in FIG. 1.

[5] = buccal spray 5 and 10 mg/kg, 30 minutes after dosing
[6] = other: oromucosal spray, oromucosal spray
[7] = other: oromucosal tablet, oromucosal tablet

- AUC(0-inf) ([4]; oral (solution)): 7.65 ng·h/mL
- Cmax ([4]; oral (solution)): 1.59 ng/mL
- Tmax ([4]; oral (solution), median): 1 h
- AUC(0-inf) [4, 6]: 157 ng·h/mL
- Cmax [4, 6]: 49.2 ng/mL
- Tmax ([4]; other: oromucosal spray, oromucosal spray, median): 0.7 h
- Tmax [4, 7]: 0.85 h
- AUC(0-inf) [4, 7]: 116 ng·h/mL
- Cmax [4, 7]: 31.7 ng/mL
- t1/2el ([4]; oral (solution)): 3.10 h
- t1/2el ([4]; oromucosal spray): 2.10 h
- t1/2el ([4]; oromucosal tablet): 3.10 h
Structure (SMILES): CCC1(c2c[nH]cn2)Cc2ccc(F)cc2C1.Cl (stereo not drawn) [fipamezole, 4-(2-ethyl-5-fluoroindan-2-yl)-1H-imidazole hydrochloride]
- changes in ECG (dogs [1]; buccal delivery 1, 5 and 10 mg/kg/day for up to 4 weeks): no apparent changes in ECG
- maximum systemic concentration of fipamezole (dogs [1]; 1 mg/kg/day): about 800 ng/ml
- maximum systemic concentration of fipamezole (dogs [1]; 5 mg/kg/day): ~2000 ng/mL
- maximum systemic concentration of fipamezole (dogs [1]; 10 mg/kg/day): ~3300 ng/mL
- ECG changes (P wave amplitude, P wave duration, P-Q interval, QRS interval or Q-T interval) (dogs [2]; buccal spray 1, 5 and 10 mg/kg, each dose level, up to 12 hours after dosing): No ECG changes
- blood pressure (absolute values) (dogs [2]; [5]): significant transient increases
- heart rate (absolute values) (dogs [2]; [5]): significant transient increases
- systemic concentration of fipamezole at which QT prolongation was observed (dogs [3]; high oral doses, 30-day study): about 2000 ng/ml
- maximum systemic fipamezole concentration (dogs [3]; 1 mg/kg/day for 30 days): about 200 ng/ml
- maximum systemic fipamezole concentration (dogs [3]; 5 mg/kg/day for 30 days): ~1000 ng/mL
- maximum systemic fipamezole concentration (dogs [3]; 10 mg/kg/day for 30 days): about 2000 ng/ml
- maximum systemic fipamezole concentration (dogs [3]; 15 mg/kg/day for 30 days): ~3300 ng/mL
